Structures can show the parent of a compound that is named as a salt. Where two headings read alike, the source gives them in different places.
Key:
[1] = tested on: HIV-1ADA; assay: Anti-HIV activity in primary human monocytes, day 9 (Table IX, FIG. 12C); type: cell-based; details: Human immunodeficiency virus 1, Monocyte, 216 h; day 9 after infection; >10 μM = 50% inhibition not achieved at maximal concentration; read-out: IC50
Experimental: Monocytes infected with HIV-1ADA were cultured in the presence of CNI-H0294 and CNI-H3094 in various concentrations. Nine days after infection, RT activity in culture supernatants was quantified. The results are presented as percent of total RT activity in untreated cultures (control). Three independent samples were assayed for each drug concentration, and the standard deviation was less than 15%.
[…] A 50% inhibitory concentration (IC50) was determined at day 9 after infection.

[2] = tested on: macrophage-tropic strain of HIV-1; assay: Inhibition of HIV-1 replication in peripheral blood-derived macrophages (IC50, RT or p24 in medium); type: cell-based; details: Human immunodeficiency virus 1, Macrophage, 120 h; 50% inhibition of viral growth; RT or p24 in medium about day 5 or 6 post-infection
Experimental: A quantitative measurement of the activity of the compounds of the invention to block the replication of HIV-1 in non-dividing cells can be determined by culture of a macrophage-tropic strain of HIV-1 on peripheral blood-derived macrophages. The cells are cultured for 5-6 days prior to infection in a medium consisting of DMEM supplemented with 10% type A/B human serum and 200 U/ml Macrophage Colony Stimulating Factor, with half the medium changed after 3 days, to reach a density of about 10^6 cells per 5 ml well. A macrophage-tropic viral stock may be grown on these cells. The concentration of infectious particles in the stock is estimated by measurement of p24 antigen concentration.
To test the effect of compounds of the invention on HIV-1 infection in the above-described culture system, the medium is removed and replaced with medium containing HIV-1 at a concentration of 1 ng of p24 (10^4 TCID50/ml (TCID=tissue culture infectious doses)) and a known concentration of the compound of the invention (the inhibitor). After 24 hours, the cultures are washed to remove non-adherent virus and the culture is re-fed with medium containing the inhibitor at the desired concentration. The amount of replication of HIV-1 is estimated by an assay of the reverse transcriptase activity or by an assay of the concentration of p24 antigen in the culture medium every 2-3 days throughout the post-infection period. In a preferred embodiment the anti-HIV potency of the candidate drug is measured by comparison of the concentration of reverse transcriptase (RT) or of p24 antigen in the medium of the treated and control cultures at the time of the peak of these values in non-treated control cultures, that is about day 5 or 6 post-infection. Repetition at various levels of inhibitor allows for the calculation of the concentration of inhibitor that achieves 50% inhibition of viral growth, IC50. Table I discloses the IC50 of various inhibitors.

[3] = Pharmacokinetics in mice (plasma, HPLC); type: in vivo, mouse; details: for Dose: calculated from clearance for target serum conc. (No. 2: 10 nM; No. 11: 50 nM; No. 15: 15 nM); for AUC / Cmax / Tmax / bioavailability: female, ND4 Swiss Webster, plasma; for Tmax: read-out: tmax (converted)
Experimental: Standard addition curves for each test compound were constructed by adding increased amounts of drug to mouse or human A^+ plasma (Long Island Blood Services; Melville, N.Y). […] The column was washed with 1.0 ml of water and then eluted with 1.0 ml of 10 mM tetramethylammonium chloride/10 mM heptane sulfonate/4.2 mM H3PO4/95% CH3CN/5% H2O (Buffer C). The eluted sample was reduced to dryness in a rotary evaporator and resuspended in 1.0 ml Buffer A.
Two hundred μl of the resuspended sample was injected onto a Hewlett-Packard model 1090 high performance liquid chromatography system (HPLC)(Wilmington, Del.) equipped with a photodiode array ultraviolet/visible spectrophotometric detector, autosampler, and Chemstation operating software. The column used was a 250×4.6 mm Zorbax RX-C8 column (Mac-Mod Analyticals; Chadd's Ford, Pa.) kept at room temperature and run at 1.5 ml/min. The mobile phase used was Buffer A and 10 mM tetramethylammonium chloride/10 mM heptane sulfonate/4.2 mM H3PO4/75% CH3CN/25% H2O (Buffer B), with all runs initiated at 10% Buffer B. A linear 30 min gradient to 60% Buffer B was then performed, followed by a 4 min reverse gradient to initial conditions.
Female ND4 Swiss Webster mice (21-24 g) were obtained from Harlan Sprague Dawley (Indianapolis, Ind.) and randomly placed in groups of five in cages with free access to food and water. […] The other CNI compounds were administered intraperitoneally or by oral gavage as a solution in water titrated with sufficient HCl to dissolve the drug. At various time points, ranging from 5 min to 4 days, a single group of animals was euthanized by carbon dioxide inhalation and bled by cardiac puncture using heparin as an anticoagulant. The blood from the five mice in the group was pooled and centrifuged at 14000× g for 10 min. The volume of plasma was measured, and equal volume of Buffer A added, and the mixture extracted and analyzed as described above, except that the dried eluates were resuspended in 200 μl Buffer A and 100 μl was injected onto the high performance liquid chromatography (HPLC) system.
The area under the plasma concentration-time curve (AUC) was determined, and bioavailability was measured as AUCoral/AUCi.p. A and B represent the zero time intercept of the distribution and elimination phases respectively, and a and β the respective slopes of the phases multiplied by 2.303. The t/2α and t1/2β are calculated half-lives of the drug in each phase (0.693/α and 0.693/β respectively). The volume of distribution (VD) was calculated as dose/B, and the total clearance rate (Cltot) calculated as β*VD. Cmax and tmax are the maximal plasma concentration and time of this measurement, respectively.

[4] = Toxicity in mice, median lethal dose by intraperitoneal injection; type: in vivo, mouse; details: for LD50: mouse, in vivo, ip, read-out: LD50 ± standard deviation
Experimental: The doses of compounds of the invention found to be lethal to 50% of the mice (LD50) were determined by intraperitoneal injection of groups of five animals with increasing doses of each compound. CNI-0294 was administered from 0, 2, 10, 20, 40, 80, 160, 320, 640, 1280 mg/kg in 0.5 ml of water/HCl; CNI-1594 at 0, 2.4, 5, 10, 20, 40, 80 mg/kg in 0.5 ml of water/HCl; CNI-1794 at 0, 20, 50, 80 mg/kg in 0.5 ml of water/HCl; and CNI-1894 at 0, 10, 20, 40, 80, 240, 480, 960 mg/kg in water/HCl. […] The percentage of animals in each group which died were utilized to calculate the LD50 by non-linear curve fitting with the Enzfit software (Elsevier Bioscience; Cambridge, UK) programmed with the Chou equation (Chou 1976, J Theor Biol 39:253-276)).

[5] = In vitro metabolism with mouse liver post-mitochondrial supernatant and NADPH; type: in vitro ADME; details: for metabolic conversion (drug altered, as judged by peak area): 60 min incubation
Experimental: Several female ND4 Swiss Webster mice were euthanized by carbon dioxide inhalation and the livers excised and rinsed with ice cold phosphate buffered saline (pH 7.4). The livers were minced, gently homogenized in 50 mM phosphate buffer (pH 7.4) with a Dounce homogenizer, and centrifuged at 9600× g for 20 min. The post-mitochondrial supernatant was kept, glycerol added to 20%, and frozen at −70° C in 1.0 ml aliquots until used. For each incubation, 1.0 ml of a 1.0 mg/ml drug solution was added to 3.0 ml of 50 mM phosphate buffer (pH 7.4), 1.0 ml of 2 mg/ml NADPH in 50 mM phosphate (pH 7.4), and 1.0 ml of the post-mitochondrial supernatant. Five hundred μl of each incubate was then immediately transferred to an ice-cold tube to provide the zero-time sample, and addition 500 μl aliquots removed to ice-cold tubes at 8, 15, 30, and 60 min. The samples were then extracted, and analyzed by HPLC as described in section 7.1. Control incubations were also performed where drug or post-10 mitochondrial supernatant was omitted. […] Peaks in the CNI compound incubations which increased over time, and were not present in control samples lacking the enzyme preparation were treated as putative metabolites.

[6] = tested on: HIV-1; assay: HIV-1 production in cultured monocytes at fixed 100 nM; type: cell-based; details: monocytes infected 10 days prior to assay (10 ng p24/10^6 cells), percentage of untreated control
Experimental: Alternatively, the compounds may all be compared for inhibition of HIV replication at a fixed concentration. Presented in Table II are compounds that were used at a concentration of 100 nM to inhibit the production of HIV-1 in cultured monocytes infected with HIV-1 10 days prior to assay (10 ng of p24/10^6 cells). The production of HIV-1 in each treated culture is reported as percentage of untreated control.

[7] = tested on: Plasmodium falciparum; assay: Antimalarial activity in vitro, [3H]-hypoxanthine incorporation; type: cell-based; details: clone Dd2
From the text: The antimalarial properties of the compounds of the invention can be analyzed by techniques, assays and experimental animal models well known in the art. For example, the inhibition of growth of Plasmodium falciparum in vitro by the compounds may be assessed by the hypoxanthine-incorporation method (Desjardins et al., 1979, Antimicrob. Ag. Chemother. 16:710-718). […] The in vivo efficacy of the compounds can also be tested in mouse models in which parasitemia is enumerated following administration of the compound (Ager, A. L. 1984, Rodent malaria models, pp 225-264. In Handbook of Experimental Pharmacology vol. 68, Antimalarial Drugs, Peters and Richards eds, Springer-Verlag, Berlin).
The antimalarial activity of the compounds was determined essentially as described in Desjardins et al. supra. Fifty μl of various concentrations of a compound of the invention, chloroquine, or pyrimethamine were added to the wells of microtiter plates, followed by 200 μl of ring-stage, synchronized, P. falciparum-infected erythrocytes (final hematocrit=1.5%, final parasitemia=1-5%). The plates were incubated for 24 hr in a candle jar kept at 37° C., and then 25 μl of [^3H]-hypoxanthine (Amersham, Arlington Heights, ILL.; 2.5 μl Ci/well) was added. The plates were then incubated for a further 24 hr, before harvesting onto Unifilter-96 GF/C filter-microplates (Packard; Meriden, Conn.). Twenty-five μl of Microscint scintillation fluid (Packard) was added to each well of the filter-microplate, which was subsequently counted in a Top-count microplate scintillation counter (Packard). The percent of [^3H]-hypoxanthine uptake relative to control infect-erythrocytes was used to determine the IC50 value for the compounds by non-linear regression for LD50 determination.

[8] = mouse, ip, 20 mg/kg, vehicle water
[9] = mouse, i.p., 20 mg/kg, vehicle water
[10] = mouse, ip, 50 mg/kg, vehicle water
[11] = mouse, po, 50 mg/kg, vehicle water
[12] = mouse, i.p., 50 mg/kg, vehicle water

Question: For `CC(=O)c1cccc(Nc2cc(C)[n+](C)c(N)n2)c1` (as salt: iodide) [Compound No. 14, 4-(3-acetylphenyl)amino-2-amino-1,6-dimethylpyrimidinium iodide], which melting point is on record?
Answer: The melting point was 238 to 240 °C.

Question: Which IC50 [1] does the source give for `CC(=O)c1cccc(Nc2cc(C)[n+](C)c(N)n2)c1` [Compound No. 14, 4-(3-acetylphenyl)amino-2-amino-1,6-dimethylpyrimidinium iodide] here?
Answer: The IC50 was 1000 nM.

Question: What about the IC50 [2] of the same compound?
Answer: The IC50 was 10 nM.

Question: For `CC(=O)c1cccc(Nc2cc(C)nc(N)n2)c1` [Compound No. 15, 4-(3-acetylphenyl)amino-2-amino-6-methylpyrimidine], which Dose [3] is on record?
Answer: The Dose was 5.70 mg/Kg day.

Question: What about the AUC [3, 8] of the same compound?
Answer: Its AUC is 820 ng·h/mL.

Question: And the Cmax [3, 8]?
Answer: The Cmax was 1930 ng/mL.

Question: And the Tmax ([3]; ip, mouse, i.p., 20 mg/kg, vehicle water)?
Answer: The Tmax was 15 min.

Question: And the “A (zero time intercept of the distribution phase)” value [3, 9]?
Answer: Its value is 1.10 µg/mL.

Question: And the “B (zero time intercept of the elimination phase)” value [3, 9]?
Answer: The value was 0.01 µg/mL.

Question: What about the Cltot [3, 9] of the same compound?
Answer: The Cltot was 26.40 mL/min.

Question: And the t1/2α [3, 9]?
Answer: The t1/2α was 19.2 min.

Question: And the t1/2β [3, 9]?
Answer: The t1/2β was 1040 min.

Question: What about the α [3, 9] of the same compound?
Answer: The α was 2.14 h⁻¹.

Question: What about the β [3, 9] of the same compound?
Answer: Its β is 0.04 h⁻¹.

Question: What about the “visible signs of toxicity” value [4] of the same compound?
Answer: The value was “death occurring in minutes and the animals displaying signs of acute neurotoxicity”.

Question: What about the LD50 [4] of the same compound?
Answer: Its LD50 is 49.04 ± 0.08 mg/kg.

Question: What about the IC50 [2] of the same compound?
Answer: The IC50 was 15 nM.

Question: And the metabolites produced [5]?
Answer: The metabolites produced was “three minor and one major metabolite”.

Question: And the “metabolic conversion (drug altered, as judged by peak area)” value [5]?
Answer: The value was 11.74%.

Question: What does the source list for `CC(=O)c1cc(Nc2nc(N)nc(N)n2)cc(C(C)=O)c1` [Compound No. 13, 2-(3,5-diacetylphenyl)amino-4,6-diamino-1,3,5-triazine]?
Answer: Viral Production [6]: 14%; melting point: 271 to 272 °C

Question: With `CC(=O)c1cc(NC(=N)NC(=N)N)cc(C(C)=O)c1.Cl` [Compound No. 12, N-(3,5-diacetylphenyl)biguanide hydrochloride] as the compound, how does the “Viral Production” value [6] read?
Answer: The value was 12%.

Question: What about the melting point of the same compound?
Answer: The melting point was 260 to 270 °C (dec.).

Question: Which results are given for `CC(=O)c1cc(Nc2cc(C)nc(N)n2)cc(C(C)=O)c1` [Compound No. 11, 2-amino-4-(3,5-diacetylphenyl)amino-6-methylpyrimidine]?
Answer: Dose [3]: 13.3 mg/Kg day; AUC [3, 10]: 3930 ng·h/mL; Cmax [3, 10]: 5700 ng/mL; bioavailability ([3]; mouse, oral, mice, single 50 mg/kg dose, AUCoral against AUCi.p., read-out: relative bioavailability): 15%; AUC [3, 11]: 570 ng·h/mL; Cmax [3, 11]: 350 ng/mL; Tmax ([3]; ip, mouse, i.p., 50 mg/kg, vehicle water): 15 min; bioavailability ([3]; mouse, oral, 50 mg/kg, vehicle water, AUCoral/AUCi.p., read-out: Bioavailability): 15%; Tmax ([3]; mouse, oral, 50 mg/kg, vehicle water): 15 min; maximal plasma level ([3]; mice, oral, single 50 mg/kg dose): 0.35 µg/mL; A (zero time intercept of the distribution phase) [3, 12]: 5.22 µg/mL; B (zero time intercept of the elimination phase) [3, 12]: 0.14 µg/mL; Cltot [3, 12]: 16.50 mL/min; VD [3, 12]: 5.21 L; t1/2α [3, 12]: 22.8 min; t1/2β [3, 12]: 219 min; α [3, 12]: 1.83 h⁻¹; β [3, 12]: 0.19 h⁻¹; visible signs of toxicity [4]: well tolerated; LD50 [4]: > 160 mg/kg; less active than CNI-0294 [7]: approximately 5 fold; IC50 [2]: 50 nM; metabolites produced [5]: three minor and one major metabolite; metabolic conversion (drug altered, as judged by peak area) [5]: 65.19%

From patent US6649797B2, “Compounds and methods of use to treat infectious diseases” (The Picower Institute for Medical Research, priority 1996, dated 2003)
